How the values were obtained:
[1] = system: external hemorrhoids in rats; test: External hemorrhoid model in rats (acetic acid); assay type: in vivo, SD rats
Text: • (1) Blank control group (7 rats) • (2) Hemorrhoid model group (10 rats) • (3) Hemorrhoid model group+positive control drug (Mayinglong Hemorrhoid Ointment) group (8 rats) • (4) Hemorrhoid model group+vehicle treatment (Gel excipient) (8 rats) • (5) Hemorrhoids model group+0.1% MDI-1228 gel preparation group (8 rats) • (6) Hemorrhoids model group+0.3% MDI-1228 gel preparation group (8 rats) • (7) Hemorrhoids model group+1% MDI-1228 gel preparation group (8 rats) • (8) Hemorrhoids model group+3% MDI-1228 gel preparation group (8 rats) • Experimental environment: Temperature 20° C.-26° C., humidity 40%-70%
Apart from the normal control group, all groups were treated by first disinfecting the perianal skin. A 75% acetic acid solution was prepared and injected subcutaneously in a scattered pattern around the anus of each rat at a dose of 0.05 ml.
The recipe and preparation method for 1% MDI-1228 gel were as follows:
The control group and model group received no treatment (no therapy). Administration begined 24 hours after the model induction was successful. Group 3) was administrated with Mayinglong Hemorrhoid Ointment (7.5 g/Kg), three times, 10 min each time; Group 4) was administrated with a blank gel forming agent (1 g/Kg) around the anus; Groups 5)-8) were administrated with different concentrations of MDI-1228 compound gel preparation (1 g/Kg) around the anus, twice daily, 10 min each time, followed by covering with plastic wrap and fixing with tape to prevent the drug from falling off and affecting efficacy. After 6 hours, the dressing was removed, and the application site was cleaned with normal saline. The administration was continued for 11 days.
Observe the healing of the ulcer site on days 3, 5, 7, 9, and 11 of administration, and assess the ulcer score (scoring criteria: ulcer exudate present=1 point; minimal ulcer exudate=2 points; scab present, nearly healed=3 points; completely healed=4 points).
On an 11-day administration, animals were euthanized by inhalation of excess carbon dioxide, and perianal rectal tissue was taken for HE staining, and serum was taken for ELISA detection.
Tissue samples from animal Rectal were excised, fixed in 10% neutral formalin buffer solution, dehydrated, embedded in paraffin, and sectioned and HE stained for observation of rectal histopathological morphology changes. The reagents and instruments required for HE staining included: Hematoxylin staining solution (AR11800-1, BOSTER); Eosin staining solution (AR11800-2, BOSTER); Ultra-clean advanced mounting medium (YZB, BASO); Scott's blueing solution (G1865, Solarbio), etc. Medication refrigerator (BYC-310, Shandong Bokai Biotech); Microscope (CX41 OLYMPUS); Microtome (BQ-318D, Berne); Electric heating blast drying oven (DHG-9070A, Hengke Scientific Instrument Co., Ltd.). The taken tissue was rinsed with running water for several hours, dehydrated through a series of ethanol solutions (70%, 80%, 90%), and then treated with a mixture of pure alcohol and xylene at a ratio of 1:1 for 15 minutes, followed by xylene I for 15 minutes and xylene II for 15 minutes (until transparent). The tissue was then placed in a mixture of xylene and paraffin at a ratio of 1:1 for 15 minutes, followed by immersion with paraffin I and paraffin 11 each for 50-60 minutes. The tissue was embedded in paraffin and sectioned, and the sections were dried, dewaxed and hydrated in distilled water. […]

alopecia areata in mice = test: Alopecia areata model in mice (imiquimod); assay type: in vivo, C3H/HeJ mice
Experimental: • Blank control group (no treatment) (N=5) • Blank alopecia areata model group (no treatment) (N=8) • Alopecia areata model+blank excipient group (vehicle treatment: blank gel preparation, dose: 1.5 g/kg per mouse, twice daily per mouse) (N=8) • Alopecia areata model+positive control drug group (compound Betamethasone cream (corticosteroid), twice daily, 50 mg each time per mouse) (N=8) • Alopecia areata model+0.5% MDI-1228 compound gel preparation group (dose: 1.0 g/kg per mouse, twice daily per mouse) (N=8) • Alopecia areata model+1% MDI-1228 compound gel preparation group (dose: 1.5 g/kg per mouse, twice daily per mouse) (N=8) • Alopecia areata model+3% MDI-1228 compound gel preparation group (dose: 1.5 g/kg per mouse, twice daily) (N=8) • Blank alopecia areata model (vehicle treatment: 5% DMSO+75% PEG300+20% EtOH) (N=8)
Modeling: Imiquimod cream was applied to the nape of the animals (no hair removal required), three times a week for three consecutive weeks. The control group was treated with a blank excipient without imiquimod. Each time, a clean medical cotton swab was used to apply approximately 0.03 g of imiquimod evenly over an area of about 1 cm×1 cm, and the application site was cleaned with normal saline before each application. The operation was performed gently to avoid skin abrasions or mechanical hair loss due to friction. […] During the modeling, the hair loss of the mice was recorded.
The blank control group (untreated) received no treatment; the drug groups were treated with the corresponding doses of compound betamethasone cream, blank gel preparation, and MDI-1228 compound gel preparation applied to the skin, twice daily (at 9 AM and 5 PM, with an interval of at least 6 hours). Note: To prevent animals from licking the medication off each other, after the gel was applied, the animals were placed individually in a pad-free independent cage to move around for a period of time to allow the gel to air dry for 1 hour before being returned to the normal feeding cage. Single housing is discouraged as it can lead to depression; wrapping the application area with gauze is also prohibited as it can absorb the medication.
During the treatment period, the local changes in the hair loss area of the mice were observed, and the hair growth and adverse reactions were recorded in detail, and scores were assigned according to the following table.
The reagents and instruments required for HE staining included: Hematoxylin staining solution (AR11800-1, BOSTER); Eosin staining solution (AR11800-2, BOSTER); Ultra-clean advanced mounting medium (YZB, BASO); Scott's blueing solution (G1865, Solarbio), etc. Medication refrigerator (BYC-310, Shandong Bokai Biotech); Microscope (CX41 OLYMPUS); Microtome (BQ-318D, Berne); Electric heating blast drying oven (DHG-9070A, Hengke Scientific Instrument Co., Ltd.). The taken tissue was rinsed with running water for several hours, dehydrated through a series of ethanol solutions (70%, 80%, 90%), and then treated with a mixture of pure alcohol and xylene at a ratio of 1:1 for 15 minutes, followed by xylene I for 15 minutes and xylene II for 15 minutes until transparent. The tissue was then placed in a mixture of xylene and paraffin at a ratio of 1:1 for 15 minutes, followed by immersion with paraffin I and paraffin II each for 50-60 minutes. The tissue was embedded in paraffin and sectioned.

For `CCc1cc(O)c(F)cc1-c1ccc2c(-c3nc4c([nH]3)CN(C(=O)N3CC[C@H](O)C3)C4)n[nH]c2c1` [MDI-1228, (S)-(2-(6-(2-ethyl-5-fluoro-4-hydroxyphenyl)-1H-indazol-3-yl)-4,6-dihydropyrrolo[3,4-d]imidazol-5-(1H)-yl)(3-hydroxylpyrrolidin-1-yl)ketone], the “TNF-α expression in blood (ELISA)” value ([1]; 0.1%, 0.3%, 1%, 3% MDI-1228 gel, positive control drug, vs. model group) was “could all downregulate the expression of TNF-α”, the “Perianal ulcer healing score” value ([1]; 1% MDI-1228 gel 1 g/Kg twice daily, vs. model group) was “significant therapeutic effect after a 7-days administration” and the “Perianal rectal tissue HE staining pathological score” value ([1]; 3% MDI-1228 gel) was “the best effect”. The “Perianal rectal tissue HE staining pathological score” value ([1]; MDI-1228 gel at concentrations of 0.3% or more) was “more significant”, the “Alleviation and treatment of external hemorrhoids” value ([1]; MDI-1228 gel preparations at different concentrations) was “can effectively alleviate and treat external hemorrhoids in rats” and the “Skin HE staining (hair follicles)” value (alopecia areata in mice; 0.5%, 1%, 3% MDI-1228 gel) was “some therapeutic effect”. The “Area under the curve (AUC) of hair growth scores” value (alopecia areata in mice; 0.5%, 1%, 3% MDI-1228 gel twice daily, vs. blank gel group) was “significantly promoted hair growth in alopecia areata animals”, the “Hair growth scores after 21 days” value (alopecia areata in mice; 3% MDI-1228 gel) was “the best effect” and the “Hair growth scores after 21 days” value (alopecia areata in mice; all MDI-1228 treatment groups (0.5%, 1%, 3% gel), vs. model group) was “significantly higher than the model group”. The “Symptoms of alopecia areata (conclusion)” value (alopecia areata in mice; mouse, in vivo) was “can improve the symptoms of alopecia areata in mice to a certain extent”.
